Reference: patent US20210000806A1, “COMPOSITIONS AND METHODS FOR TREATING INFLAMMATORY BOWEL DISEASE AND FUSOBACTERIA-CAUSED OR RELATED DISEASES AND CONDITIONS” (priority 2018, published 2021)

Columns and labels:
ulcerative colitis = assay: Case report: patient with ulcerative colitis (pancolitis) treated with secnidazole, rifampicin and doxycycline; type: in vivo, human; details: patient history before the antibiotic combination
Method: A patient with a 12 year history of ulcerative colitis presented with 4-15 diarrhoeal stools every day and 2-3 at night.
They were commenced on secnidazole (400 mg three times daily) combined with rifampicin (increasing from 150 mg twice daily to 300 mg twice daily after four weeks), together with doxycycline (50 mg twice daily).
They then continued on the same regimen a further six months when a colonoscopy was repeated.

[1] = test system: inflammatory bowel disease (IBD); assay: Inventor's clinical experience with higher-dose rifaximin in colitis / IBD; type: in vivo, human
Excerpt: Current doses are almost always an under-dosing with rifaximin; and there is no external dose reference or independent dose ranging study in colitis to be guided by.

## Cn1cnc([N+](=O)[O-])c1Sc1ncnc2nc[nH]c12 [azathioprine]
Ulcerative colitis
  response to previous anti-inflammatory medications: not achieving more than a transient response

## Nc1ccc(O)c(C(=O)O)c1 [mesalazine]
Ulcerative colitis
  response to previous anti-inflammatory medications: not achieving more than a transient response

## C[C@]12C=CC(=O)C=C1CC[C@@H]1[C@@H]2C(=O)C[C@@]2(C)[C@H]1CC[C@]2(O)C(=O)CO [prednisone]
Ulcerative colitis
  response to previous anti-inflammatory medications: not achieving more than a transient response

## CO[C@H]1/C=C/O[C@@]2(C)Oc3c(C)c(O)c4c(O)c(c5c(nc6cc(C)ccn65)c4c3C2=O)NC(=O)/C(C)=C\C=C\[C@H](C)[C@H](O)[C@@H](C)[C@@H](O)[C@@H](C)[C@H](OC(C)=O)[C@@H]1C [rifaximin]
[1]; higher dose spread over 3 doses/day (3.3 g per day) versus current recommended doses (550 mg twice daily)
  inhibiting inflammation by inhibiting the infection(s): works far better
[1]; only using the higher and more frequent dosing
  remission with rifaximin alone: can be used to achieve remission
